The nature of this data set: in vitro. The note with it: human, hela cells, % viability.

`CCC1CCCCN1C(=O)c1sc(C)nc1C` (stereo not shown) [CBK089359]: the viability at 28.5 h, 10 µM was determined as 105%.

Take `CCOC(=O)CSc1nnc(-c2ccc(Cl)cc2)o1` [CBK068845]: the viability at 28.5 h, 10 µM is 105%.

Turning to `Cc1nc2ccc(C(=O)NC(C)Cc3cccs3)cc2[nH]1` (stereo not shown) [CBK282487], the viability at 28.5 h, 10 µM turned out to be 86.8%.

Turning to `C=CCOc1ccc(-c2nnn(CC(=O)O)n2)cc1` [CBK269772], the viability at 28.5 h, 10 µM was 87.8%.

As for `COc1cccc2c3c([nH]c12)C1(CCN(CCOc2ccccc2)CC1)N(C=O)CC3` [CBK039423], the viability at 28.5 h, 10 µM came to 112%.

Take `COC(=O)[C@@H]1CN(C(=O)Nc2ccccc2)CCN1C(=O)C1CCCCC1` [CBK289607]: the viability at 28.5 h, 10 µM turned out to be 91%.

With `Cc1csc(Sc2nccc(C(F)(F)F)n2)n1` [CBK093770], the viability at 28.5 h, 10 µM turned out to be 91.9%.

With `O=C(c1cnccc1C(F)(F)F)N1Cc2ccccc2C1` [CBK200323], the viability at 28.5 h, 10 µM was found to be 105%.

Regarding `O=C(NC1(c2ccc(Cl)cc2)CC1)C1CCS(=O)(=O)C1` (stereo not shown) [CBK282765], the viability at 28.5 h, 10 µM worked out at 75.3%.

On to `CSCCN(C)C(=O)c1nnn(Cc2ccc(F)cc2F)c1C` [CBK306468], for which the viability at 28.5 h, 10 µM came out at 93.2%.

On to `O=C(NC1CCN(C(=O)Cn2ccc3ccncc32)CC1)C1CC1` [CBK284731], for which the viability at 28.5 h, 10 µM was 98.9%.

In the case of `O=C(NC1CCCOC1)C1CCN(Cc2ccccc2Cl)CC1` (stereo not shown) [CBK282520], the viability at 28.5 h, 10 µM came out at 107%.

Regarding `Cc1ccc(-c2ccnc3[nH]c(=O)[nH]c(=O)c23)cc1` [CBK287978], the viability at 28.5 h, 10 µM amounted to 89.7%.

With `CCCN1CCC(N(C)CCN(CC)CC)CC1` [CBK261935], the viability at 28.5 h, 10 µM is 104%.

With `CC(=O)OCc1c(C)cc(C)c(CN(C)C(C)c2ccncn2)c1C` (stereo not shown) [CBK307315], the viability at 28.5 h, 10 µM is 95.1%.

On to `Cc1nn(C)cc1-c1cncn1CCCOc1ccc(Cl)cc1` [CBK281787], for which the viability at 28.5 h, 10 µM turned out to be 87.5%.

Regarding `CCCCc1ccc(C(N)=O)nc1C(N)=O` [CBK005061], the viability at 28.5 h, 10 µM turned out to be 88.8%.

As to `COc1ccccc1Cc1cccc(C2CCCN2C(=O)Cc2c[nH]c3ccccc23)n1` (stereo not shown) [CBK286139], the viability at 28.5 h, 10 µM was 95.2%.

With `CCOc1ccc(CN2CCN(CCCc3ccccc3)CC2)cc1` [CBK264153G], the viability at 28.5 h, 10 µM was 92.7%.

As to `NC(=S)Nc1nc(-c2ccc(Br)cc2)cs1` [CBK023259], the viability at 28.5 h, 10 µM worked out at 100%.

In the case of `Cc1cccc(CN2CCC3(CCc4ccccc4C(=O)N3)C2)n1` (stereo not shown) [CBK284619], the viability at 28.5 h, 10 µM was 106%.

Take `COc1ccccc1NC(=O)/C(=C\c1cccnc1)NC(=O)c1ccccc1` [CBK261649]: the viability at 28.5 h, 10 µM was 89.6%.

In the case of `COc1ccc2c(c1)c(=O)oc1c(CN3CCCC3)c(O)ccc12` [CBK266814], the viability at 28.5 h, 10 µM was 95.3%.

For the molecule `Cc1noc(C2(O)CCN(CCc3ccc(F)c(F)c3)C2)n1` (stereo not shown) [CBK304753], the viability at 28.5 h, 10 µM is 93.9%.

Regarding `COc1ccc(NCc2cc(I)c(OCc3ccccc3)c(OC)c2)cc1` [CBK074452], the viability at 28.5 h, 10 µM is 106%.

Consider `CC(=O)c1cccc(NC(=O)Cn2nc(N3CCSCC3)ccc2=O)c1` [CBK307625], for which the viability at 28.5 h, 10 µM turned out to be 102%.

Regarding `Cc1csc(-c2cn3ccnc3c(N3CCN(c4ccccn4)CC3)n2)c1` [CBK066530], the viability at 28.5 h, 10 µM is 95.6%.

In the case of `CC(=O)N1CCC(C(=O)NC(=O)Nc2cccc(C)c2)CC1` [CBK034854], the viability at 28.5 h, 10 µM turned out to be 94.3%.

For the molecule `CN1CCN(c2cc(CNC(=O)c3ccnc(Cl)c3)ccn2)CC1` [CBK298275], the viability at 28.5 h, 10 µM is 92.4%.

`CC1CCN(c2ccc(S(=O)(=O)Nc3cc(C(=O)O)cc(C(=O)O)c3)cc2[N+](=O)[O-])CC1` [CBK263886]: the viability at 28.5 h, 10 µM was 94.8%.

Take `O=c1c2c(-c3ccccc3)ccnc2[nH]n1-c1ccccc1` [CBK287858]: the viability at 28.5 h, 10 µM was found to be 97%.

On to `O=C(O)CN1CCN(c2ncnc3sc4c(c23)CCCC4)CC1` [CBK286836], for which the viability at 28.5 h, 10 µM amounted to 99.5%.

With `CCn1c(CN[C@@H]2CCC[C@H]2Cc2cc(C)no2)cnc1SC` [CBK282965], the viability at 28.5 h, 10 µM stood at 96.6%.

Regarding `Cc1ccc(C(=O)O)cc1NC(=O)CSc1nc2scc(C3CC3)c2c(=O)n1-c1ccccc1` [CBK297481], the viability at 28.5 h, 10 µM is 107%.

In the case of `CC(=O)Nc1cccc(C(=O)OCC(=O)N2CCC(C)CC2)c1` [CBK305905], the viability at 28.5 h, 10 µM was found to be 98.3%.

Turning to `Cc1ccc(CCC(=O)Nc2ccc(S(N)(=O)=O)cc2)o1` [CBK269031], the viability at 28.5 h, 10 µM is 99.9%.

As for `CN(C)c1cccc(-c2cnc3[nH]c(=O)n(CCCO)c3n2)c1` [CBK065052], the viability at 28.5 h, 10 µM was found to be 102%.

As for `O=S(=O)(NCCCn1ccnc1)c1cccs1` [CBK269912], the viability at 28.5 h, 10 µM was 95.1%.

In the case of `CCN(C(C)COC)S(=O)(=O)c1ccc(-n2ncc(Cl)c(Cl)c2=O)cc1` (stereo not shown) [CBK305662], the viability at 28.5 h, 10 µM was 37%.

As to `CCN(CC)CCN(Cc1ccc2c(c1)OCO2)C(=O)Nc1ccc(C)cc1` [CBK159059], the viability at 28.5 h, 10 µM turned out to be 89.3%.

Regarding `COc1ccc(OC)c(NC(=O)NCCc2c[nH]cn2)c1` [CBK269956], the viability at 28.5 h, 10 µM was found to be 92.4%.

Turning to `COC(=O)c1cccc(OCC(O)Cn2nc(C)c(C)c(C#N)c2=O)c1` (stereo not shown) [CBK305563], the viability at 28.5 h, 10 µM was found to be 85.3%.

`Cc1cc(C)nc(N/C(=N/C(=O)CCN2C(=O)c3ccccc3C2=O)Nc2cccc(Cl)c2)n1` [CBK266507]: the viability at 28.5 h, 10 µM was 97%.

Regarding `NS(=O)(=O)c1ccc(CCNC(=O)C2CC2)cc1` [CBK288407], the viability at 28.5 h, 10 µM was 107%.

`Cn1ncnc1CCNC(=O)N1CCCN(Cc2cccs2)CC1` [CBK307670]: the viability at 28.5 h, 10 µM came out at 95.8%.

With `C[C@]1(CO)C2CC[C@H]3OC(=O)C[C@H]3[C@]2(C)CC[C@H]1OC(=O)Nc1ccccc1` (stereo partly shown) [CBK289577], the viability at 28.5 h, 10 µM was 84.5%.

Regarding `Clc1cc(Nc2cccc(OCc3ccccc3)c2)n2nccc2n1` [CBK037109], the viability at 28.5 h, 10 µM was 92.2%.

With `N#Cc1ccc(CNC2(Cc3cc(CO)on3)COC2)cc1` [CBK289647], the viability at 28.5 h, 10 µM is 104%.

For `COc1cc(S(=O)(=O)NC2CC(C)(C)NC(C)(C)C2)ccc1Br` [CBK267908], the viability at 28.5 h, 10 µM amounted to 87.4%.

In the case of `COc1ccc([C@@]23CC[C@@H](NC(=O)Nc4ccc(Cl)cc4[N+](=O)[O-])C[C@@H]2N(C)CC3)cc1OC` [CBK036474T], the viability at 28.5 h, 10 µM is 84.1%.

Regarding `CC(=O)N1CCC(N2C[C@H](O)C[C@H]2c2nc(C3CC3)no2)CC1` [CBK288845], the viability at 28.5 h, 10 µM is 93.6%.

For the molecule `Brc1ccc(CSc2nc[nH]n2)cc1` [CBK026361], the viability at 28.5 h, 10 µM stood at 85.3%.

For the molecule `COCCn1cc(C(=O)N2CCN3CCCCC3C2)c2ccccc21` (stereo not shown) [CBK305287], the viability at 28.5 h, 10 µM worked out at 107%.

For `COc1cccc2cc(C(=O)NCCCN3CCN(C)CC3)oc12` [CBK149788], the viability at 28.5 h, 10 µM turned out to be 101%.

On to `O=C(CC(CN1CCN(CC(=O)N2CCCC2)CC1)C(=O)O)Nc1ccccc1` (stereo not shown) [CBK286844], for which the viability at 28.5 h, 10 µM came to 87.9%.

Consider `CN1CCC(=NNC(=O)c2ccc(CN3CCOCC3)cc2)CC1` [CBK262749], for which the viability at 28.5 h, 10 µM amounted to 86.6%.

Regarding `O=C(Cn1cc(Br)ccc1=O)NC1CCN(CCc2ccccc2)CC1` [CBK305887], the viability at 28.5 h, 10 µM was found to be 99.5%.

In the case of `Cc1csc(C(Cc2ccsc2)NC(=O)C2CC3C=CC2O3)n1` (stereo not shown) [CBK285108], the viability at 28.5 h, 10 µM was determined as 102%.

As to `CC(C)CN(CCc1ccc(O)cc1)CC(=O)NC1(c2ccccc2)CCC1` [CBK067781T], the viability at 28.5 h, 10 µM was determined as 100%.

As to `CCCOc1ccc(OC(=O)COc2ccccc2)cc1` [CBK160853], the viability at 28.5 h, 10 µM was 93.3%.

On to `O=C1Nc2cc(C(F)(F)F)ccc2N2CCCC12` (stereo not shown) [CBK288125], for which the viability at 28.5 h, 10 µM was determined as 99.7%.

On to `Cc1ccc(NC(=O)Cn2cnc3c(cnn3-c3ccc(C)cc3)c2=O)cc1` [CBK287534], for which the viability at 28.5 h, 10 µM came out at 104%.

For `CC(=O)N1CCc2c(sc3nc(N)c(C(=O)NCCc4ccc(F)cc4)c(C(F)(F)F)c23)C1` [CBK269176], the viability at 28.5 h, 10 µM was determined as 94.4%.

Take `CCn1nc(C)c(-c2cncn2CC(C)n2nc(C)cc2C)c1C` (stereo not shown) [CBK281777]: the viability at 28.5 h, 10 µM came to 109%.

Turning to `O=C(CC1SC(N2CCOCC2)=NC1=O)Nc1cccc(C(=O)O)c1` (stereo not shown) [CBK300498], the viability at 28.5 h, 10 µM was determined as 101%.

With `O=C(O)c1ccc2[nH]c(=O)[nH]c2c1` [CBK032631], the viability at 28.5 h, 10 µM worked out at 81.3%.

As to `CCCCc1noc(C(C)S(=O)(=O)Cc2csc(CCCC)n2)n1` (stereo not shown) [CBK305431], the viability at 28.5 h, 10 µM came to 110%.

`COc1nc2nc(N)nc(N)c2nc1C` [CBK025669]: the viability at 28.5 h, 10 µM amounted to 90.1%.

Consider `Cc1ccc(Nc2cc(-c3cc4ccccc4o3)ncn2)cc1NS(C)(=O)=O` [CBK091148], for which the viability at 28.5 h, 10 µM was found to be 93.6%.

Turning to `O=C(Nc1cccnc1)N1CCN(c2ccc(F)cc2)CC1` [CBK156427], the viability at 28.5 h, 10 µM came to 92.7%.

With `Cn1cncc1CN(Cc1ccccc1)C1CC(C)(C)NC(C)(C)C1` [CBK283226], the viability at 28.5 h, 10 µM came to 89.1%.

For `COC(=O)c1sccc1S(=O)(=O)N1CCN(c2ncnc3scc(C)c23)CC1` [CBK023600], the viability at 28.5 h, 10 µM came to 94.2%.

In the case of `CCOc1ccc(CNc2sc3c(c2C(=O)Nc2ccc(OC)cc2)CCC3)cc1` [CBK294473], the viability at 28.5 h, 10 µM stood at 80.6%.

With `O=C(Cn1c(NCCCO)nc2ccccc21)c1cccs1` [CBK023894B], the viability at 28.5 h, 10 µM came to 96.5%.

On to `Nc1nc(C2COc3ccccc3O2)ncc1S(=O)(=O)c1ccc(Cl)cc1` (stereo not shown) [CBK074808], for which the viability at 28.5 h, 10 µM is 96.2%.

For `c1csc(-c2nccnc2NCCCN2CCOCC2)c1` [CBK036632], the viability at 28.5 h, 10 µM amounted to 84.6%.

On to `CN1CCC(CN(C)Cc2ccc3cccc(Cl)c3n2)C1` (stereo not shown) [CBK282615], for which the viability at 28.5 h, 10 µM was found to be 90.2%.

For `COc1ccc(C[C@@]23CC[C@@H](NC(=S)NCc4ccccc4)C[C@@H]2N(C)CC3)cc1` [CBK004262], the viability at 28.5 h, 10 µM turned out to be 88.4%.

With `Cc1cc(C)c2c(N)c(C(=O)O)sc2n1` [CBK131868], the viability at 28.5 h, 10 µM came to 87.8%.

On to `CCC(C)(C)C(=O)Nc1ccc(Br)c2ccccc12` [CBK091342], for which the viability at 28.5 h, 10 µM amounted to 79.7%.

For the molecule `O=C(NCCSCc1c(F)cccc1Cl)Nc1ccccc1` [CBK265340], the viability at 28.5 h, 10 µM was determined as 90.2%.

For `CC(C)CCNC(=O)N(CCC#N)C1CCCCC1` [CBK156378], the viability at 28.5 h, 10 µM is 91.6%.

Source of the values: publication PMC12040169 (PLOS Biology, 2025).
